According to patent publication US7947709B2, “Non-nucleoside reverse transcriptase inhibitors” (Roche Palo Alto LLC, priority 2007, dated 2011):
pIC50: −log10 of the molar value. Like-named read-outs stand apart in the source and are kept apart here.

Assays:
HIV-1 RT = target: T1, HIV-1 RT (Human immunodeficiency virus type 1 group M subtype B, UniProt P04585); assay: HIV-1 Reverse Transcriptase Assay (RNA-dependent DNA polymerase activity, SPA); type: biochemical
T1 construct: HIV-1 RT enzyme (final concentrations of 1-3 nM)
Method: HIV-1 Reverse Transcriptase Assay
RNA-dependent DNA polymerase activity was measured using a biotinylated primer oligonucleotide and tritiated dNTP substrate. Newly synthesized DNA was quantified by capturing the biotinylated primer molecules on streptavidin coated Scintillation Proximity Assay (SPA) beads (Amersham). The sequences of the polymerase assay substrate were: 18 nt DNA primer, 5′-Biotin/GTC CCT GTT CGG GCG CCA-3′; 47 nt RNA template, 5′-GGGUCUCUCUGGUUAGACCACUCUAGCAGUGGCGCCCGAACAGGGAC-3′. The biotinylated DNA primer was obtained from the Integrated DNA Technologies Inc. and the RNA template was synthesized by Dharmacon. The DNA polymerase assay (final volume 50 μl) contained 32 nM biotinylated DNA primer, 64 nM RNA substrate, dGTP, dCTP, dTTP (each at 5 μM), 103 nM [^3H]-dATP (specific activity=[…]), in 45 mM Tris-HCl, pH 8.0, 45 mM NaCl, 2.7 mM Mg(CH3COO)2, 0.045% Triton X-100 w/v, 0.9 mM EDTA. The reations contained 5 ul of serial compound dilutions in 100% DMSO for IC50 determination and the final concentrations of DMSO were 10%. Reactions were initiated by the addition of 30 μl of the HIV-1 RT enzyme (final concentrations of 1-3 nM). Protein concentrations were adjusted to provide linear product formation for at least 30 min of incubation. After incubation at 30° C. for 30 min, the reaction was quenched by addition of 50 μl of 200 mM EDTA (pH 8.0) and 2 mg/ml SA-PVT SPA beads (Amersham, RPNQ0009, reconstituted in 20 mM Tris-HCl, pH 8.0, 100 mM EDTA and 1% BSA). The beads were left to settle overnight and the SPA signals were counted in a 96-well top counter-NXT (Packard). IC50 values were obtained by sigmoidal regression analysis using GraphPad.

[1] = tested on: HXB2-strain of HIV-1 in MT4 cells; assay: Antiviral Assay (protection of HIV-1-infected MT4 cells from cell death, MTT); type: cell-based; settings: Human immunodeficiency virus 1, 120 h, MT4 cells infected with HXB2-strain of HIV-1, 5 days
Method: Anti-HIV-1 antiviral activity was assessed using an adaptation of the method of Pauwels et al. (Pauwels et al., J Virol Methods 1988 20:309-321). The method is based on the ability of compounds to protect HIV-1-infected T lymphoblastoid cells (MT4 cells) from cell-death mediated by the infection. The endpoint of the assay was calculated as the concentration of compound at which the cell viability of the culture was preserved by 50% (‘50% inhibitory concentration’, IC50). The cell viability of a culture was determined by the uptake of soluble, yellow 3-[4,5-dimethylthiazol-2-yl]-2,5-diphenyltetrazolium bromide (MTT) and its reduction to a purple insoluble formazan salt. After solubilization, spectrophotometric methods were employed to measure the amount of formazan product. […]
A fresh solution of 5 mg/mL MTT was prepared in 0.01 M phosphate buffered saline, pH 7.2 and 20 microliters added to each culture. […] When the formazan deposit was fully solubilized by further mixing, the absorbance (OD) of the cultures was measured at 540 nm and 690 nm wavelength (690 nm readings were used as blanks for artifacts between wells). The percent protection for each treated culture was then calculated from the equation: […]

[2] = HIV-1 RT enzyme 1-3 nM, 30° C., 30 min, read-out: HIV-1 RT IC50

Row | Compound | pIC50 (HIV-1 RT; [2]) | melting point | pIC50 (HIV-1 RT) | pIC50 [1]
1 | N#Cc1cc(Cl)cc(Oc2c(Br)ccc(Cn3c(=O)[nH]c4ccccc43)c2F)c1 [Compound I-1, 3-[6-Bromo-2-fluoro-3-(2-oxo-2,3-dihydro-benzoimidazol-1-ylmethyl)-phenoxy]-5-chloro-benzonitrile] | 7.91 | 227 to 229 °C | – | –
2 | N#Cc1cc(Cl)cc(Oc2c(Br)ccc(Cn3c(=O)[nH]c4ncccc43)c2F)c1 [Compound I-2, 3-[6-Bromo-2-fluoro-3-(2-oxo-2,3-dihydro-imidazo[4,5-b]pyridin-1-ylmethyl)-phenoxy]-5-chloro-benzonitrile] | 8.24 | 255.5 to 258.5 °C | – | –
3 | N#Cc1cc(Cl)cc(Oc2c(Br)ccc(Cn3c(=O)[nH]c4c3ccc[n+]4[O-])c2F)c1 [Compound I-3] | 7.80 | 259 to 260 °C | – | –
4 | N#Cc1cc(Cl)cc(Oc2c(Br)ccc(Cn3c(=O)[nH]c4cnccc43)c2F)c1 [Compound I-4, 3-[6-Bromo-2-fluoro-3-(2-oxo-2,3-dihydro-imidazo[4,5-c]pyridin-1-ylmethyl)-phenoxy]-5-chloro-benzonitrile] | – | 219 to 221.5 °C | 8.30 | 9.40
5 | N#Cc1cc(Cl)cc(Oc2c(Br)ccc(Cn3c(=O)[nH]c4c[n+]([O-])ccc43)c2F)c1 [Compound I-5] | 6.31 | 226.8 to 229 °C | – | –
6 | N#Cc1cc(Cl)cc(Oc2c(Cl)ccc(Cn3c(=O)[nH]c4cnccc43)c2F)c1 [Compound I-6, 3-Chloro-5-[6-chloro-2-fluoro-3-(2-oxo-2,3-dihydro-imidazo[4,5-c]pyridin-1-ylmethyl)-phenoxy]-benzonitrile] | 8.15 | 232 to 233 °C | – | –
7 | N#Cc1cc(Cl)cc(Oc2c(Br)ccc(Cn3c(=O)[nH]c4nnccc43)c2F)c1 [Compound I-7, 3-[6-Bromo-2-fluoro-3-(6-oxo-6,7-dihydro-imidazo[4,5-c]pyridazin-5-ylmethyl)-phenoxy]-5-chloro-benzonitrile] | 8.29 | – | – | –
8 | N#Cc1cc(Cl)cc(Oc2c(Br)ccc(Cn3cn[nH]c3=O)c2F)c1 [Compound I-8, 3-[6-Bromo-2-fluoro-3-(5-oxo-1,5-dihydro-[1,2,4]triazol-4-ylmethyl)-phenoxy]-5-chloro-benzonitrile] | 7.35 | 107 °C | – | –
9 | CCc1n[nH]c(=O)n1Cc1ccc(Br)c(Oc2cc(Cl)cc(C#N)c2)c1F [Compound I-9, 3-[6-Bromo-3-(3-ethyl-5-oxo-1,5-dihydro-[1,2,4]triazol-4-ylmethyl)-2-fluoro-phenoxy]-5-chloro-benzonitrile] | 7.71 | 264 to 265 °C | – | –
10 | Cc1n[nH]c(=O)n1Cc1ccc(Br)c(Oc2cc(Cl)cc(C#N)c2)c1F [Compound I-10, 3-[6-Bromo-2-fluoro-3-(3-methyl-5-oxo-1,5-dihydro-[1,2,4]triazol4-ylmethyl)-phenoxy]-5-chloro-benzonitrile] | 7.26 | 129.9 to 131 °C | – | –
11 | N#Cc1cc(Cl)cc(Oc2c(Br)ccc(CNC(=O)Nc3ccccc3F)c2F)c1 [Compound I-11] | 7.48 | 215.5 to 215.8 °C | – | –
12 | N#Cc1cc(Cl)cc(Oc2c(Br)ccc(COC(=O)Nc3ccc(Cl)cc3Cl)c2F)c1 [Compound I-12] | 7.17 | 138.3 to 139.9 °C | – | –
